We go through one compound from EPA's ToxValDB 9.5 (doi:10.2903/j.efsa.2006.57r).

Converted amounts (≈) assume the structure as drawn. Where only a bound is given, the exact number is not on record here.

As a reminder, the NOAEL is the highest dose or exposure tested at which no adverse effect was seen.

One data set deals with Aphidius rhopalosiphi. Put plainly: LR50; higher = less toxic. The note with it: not reported; mortality.
The next data set relates to Typhlodromus pyri. Put plainly: LR50; higher = less toxic. The note with it: not reported; mortality.
The subject of another data set is Oryctolagus sp. The note with it: reproduction developmental.
A further data set relates to Pimephales promelas. The note with it: chronic/long-term; duration: 35 days; other.
The test system of another data set is Tagia sp. The note with it: acute; mortality.
The subject of another data set is Cucumis sativus. The note with it: not reported; other.
For another data set, the system named is Daphnia magna. The note with it: chronic/long-term; duration: 21 days; mortality.
In the next data set the test system is Canidae. The note with it: chronic; duration: 1 years; oral; Dog Other; body weight.
The next data set has as its system Anas platyrhynchos. Particulars: acute; oral; unspecified; mortality.
A further data set relates to Ictalurus punctatus. Particulars: acute; duration: 96 hours; mortality.
The next data set deals with Apis mellifera. Particulars: acute, mortality.
The subject of the next data set is Rattus norvegicus. The note with it: oral.
The test system of another data set is Colinus virginianus. Particulars: reproduction developmental; F.

On to `CCOC(=O)C1CC(=O)C(=C(O)C2CC2)C(=O)C1` (stereo not given) [Trinexapac-ethyl], for which the LR50 amounted to 114 g/ha with Aphidius rhopalosiphi and 197 g/ha in the data set on Typhlodromus pyri. Also, the NOAEL is 60 mg/kg-day in the data set with Oryctolagus sp.; 32 mg/kg-day in the data set with Canidae; not above 34 mg/kg-day in the data set on Rattus norvegicus (subchronic, duration: 90 days, body weight). Further, the NOEC in the data set on Pimephales promelas was 0.41 mg/L; in the data set with Cucumis sativus, more than 24 g/ha; in the data set with Daphnia magna, 2.4 mg/L; in the data set on Colinus virginianus it was not below 53.3 mg/kg-day. For the same compound, the results for the LC50 in the data set on Tagia sp. and with Ictalurus punctatus were more than 250 mg/kg and 35 µg/mL (≈ 139 µM), respectively. Moreover, the LD50 was more than 2000 mg/kg with Anas platyrhynchos; 69.6 µg/piece with Apis mellifera (dermal); more than 108 µg/piece with Apis mellifera (oral, unspecified); 4210 mg/kg in the data set with Rattus norvegicus (acute, mortality).
